The structures appear in SMILES notation.

The assay deals with T1, IRAK4 (Homo sapiens, UniProt Q9NWZ3).
T1 sequence (Q9NWZ3 1-460): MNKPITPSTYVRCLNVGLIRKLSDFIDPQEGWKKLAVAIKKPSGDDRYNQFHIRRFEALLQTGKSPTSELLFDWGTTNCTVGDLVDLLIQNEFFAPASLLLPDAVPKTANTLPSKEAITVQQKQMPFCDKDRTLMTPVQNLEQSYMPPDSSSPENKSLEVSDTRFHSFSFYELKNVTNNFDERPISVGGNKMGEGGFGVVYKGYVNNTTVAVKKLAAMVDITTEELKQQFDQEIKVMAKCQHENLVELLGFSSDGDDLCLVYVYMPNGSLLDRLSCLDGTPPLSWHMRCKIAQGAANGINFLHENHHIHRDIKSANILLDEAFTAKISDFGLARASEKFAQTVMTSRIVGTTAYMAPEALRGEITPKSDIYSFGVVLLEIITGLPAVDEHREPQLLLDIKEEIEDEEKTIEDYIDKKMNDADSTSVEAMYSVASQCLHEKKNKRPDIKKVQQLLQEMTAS
The assay can be described thus: 2-hour 1 mM ATP IRAK4 Biochemical assay (as above, but with 100 pM IRAK4 and 1 mM ATP). The note with it: IRAK4 MSD BIOCHEMICAL (1 mM ATP) IC50 (μM), 100 pM IRAK4, 2 hours. The protocol:
The 2-hour 10 μM ATP Biochemical Assay employs a MesoScale Detection (MSD) format.
The activity is quenched with 11 μl of 70 mM EDTA, pH 8.
To detect the phosphorylated biotinylated peptide substrate, 30 μl of the quenched reaction mixture is added to equivalent wells of a 384 well streptavidin coated MesoScale plate (Meso Scale Discovery #L21SA-1). After a 1 hour incubation of the plate for 1 hour at room temperature with gentle mixing, the plate wells are washed 3 times with 50 mM Tris, pH 7.5, 150 mM NaCl, 0.02% Tween-20.
A 25 μl volume of 1:500 anti-P-Threonine Rabbit polyclonal Antibody plus 1:500 Goat-anti-Rabbit Sulfo Tag Antibody (Meso Scale Discovery R32AB-1) in 50 mM Tris, pH 7.5, 150 mM NaCl, 0.02% Tween-20 plus 2% BSA is then added to each well. After a 1-hour incubation of the plate for 1 hour at room temperature with gentle mixing, the plate wells are washed, 3 times with 50 mM Tris, pH 7.5, 150 mM NaCl, 0.02% Tween-20. A 40 μl volume of 2×MSD Read Buffer (Meso Scale Discovery R92TC-1) is added to each well, and the plate is read immediately in an MSD Plate Reader (Meso Scale Discovery).
The 2-hour 1 mM ATP IRAK4 Biochemical assay was performed as described above, but with 100 pM IRAK4 and 1 mM ATP.
Broadly, the IC50 is the midpoint of a concentration-inhibition curve. Low values mean greater potency, high ones weaker potency. For the compound `COc1nc(NC(=O)c2cccc(C(C)C)n2)cn2cc(C3CCOCC3)nc12` [Example 456, 6-isopropyl-N-(8-methoxy-2-(tetrahydro-2H-pyran-4-yl)imidazo[1,2-a]pyrazin-6-yl)picolinamide], the IC50 was 0.014 µM.

`CCCOc1ncccc1C(=O)Nc1cn2cc(C3CCOCC3)nc2c(OC)n1` [Example 460, N-(8-methoxy-2-(tetrahydro-2H-pyran-4-yl)imidazo[1,2-a]pyrazin-6-yl)-2-propoxynicotinamide] showed an IC50 of 0.025 µM.

In the case of `O=C(Nc1cn2cc(C3CCOCC3)nc2c(OCC(F)(F)F)n1)c1cccc(C(F)F)n1` [Example 303, 6-(difluoromethyl)-N-(2-(tetrahydro-2H-pyran-4-yl)-8-(2,2,2-trifluoroethoxy)imidazo[1,2-a]pyrazin-6-yl)picolinamide], the IC50 was 0.038 µM.

On to `CCOc1cc2nc(C(C)C#N)cn2cc1NC(=O)c1cccc(C(F)F)n1` (stereo not drawn) [Example 316, N-(2-(1-cyanoethyl)-7-ethoxyimidazo[1,2-a]pyridin-6-yl)-6-(difluoromethyl)picolinamide], for which half-maximal inhibition (IC50) was put at 0.003 µM.

`Cc1cccc(C(=O)Nc2cn3cc(C45COC(C)(C4)C5)nc3nc2OC(C)C)c1F` [Example 490, 2-fluoro-N-(7-isopropoxy-2-(1-methyl-2-oxabicyclo[2.1.1]hexan-4-yl)imidazo[1,2-a]pyrimidin-6-yl)-3-methylbenzamide]: it took 0.001 µM to reach half-maximal inhibition (IC50). Against the preceding compound, the IC50 is about 3-fold lower.

In turn, `Cc1nc(C(=O)Nc2cn3cc(C45CCC(C)(C4)OC5)nc3c(OC3CCC3)n2)co1` (stereo not drawn) [Example 486, N-(8-cyclobutoxy-2-(1-methyl-2-oxabicyclo[2.2.1]heptan-4-yl)imidazo[1,2-a]pyrazin-6-yl)-2-methyloxazole-4-carboxamide 2,2,2-trifluoroacetate] gave an IC50 of 0.016 µM.

`COc1c(NC(=O)c2cccc(C(F)F)n2)cn2cc(C3CCOCC3)nc2c1C` [Example 427, 6-(difluoromethyl)-N-(7-methoxy-8-methyl-2-(tetrahydro-2H-pyran-4-yl)imidazo[1,2-a]pyridin-6-yl)picolinamide] showed an IC50 of 0.003 µM.

Compound `CCOc1nc(NC(=O)c2coc(C)n2)cn2cc(C34COC(C)(C3)C4)nc12` [Example 473, N-(8-ethoxy-2-(1-methyl-2-oxabicyclo[2.1.1]hexan-4-yl)imidazo[1,2-a]pyrazin-6-yl)-2-methyloxazole-4-carboxamide] returned an IC50 of 0.031 µM. This IC50 is about 10-fold higher than that of the compound before.

With `CC(C)Oc1nc2nc(C34COC(C)(C3)C4)cn2cc1NC(=O)c1cccc(C2CCOC2)n1` (stereo not drawn) [Example 493, N-(7-isopropoxy-2-(1-methyl-2-oxabicyclo[2.1.1]hexan-4-yl)imidazo[1,2-a]pyrimidin-6-yl)-6-(tetrahydrofuran-3-yl)picolinamide], inhibition was half-maximal at 0.001 µM (IC50).

`CC(C)Oc1nc2nc(C3C4COCC43)cn2cc1NC(=O)c1coc(C(C)C)n1` (stereo not drawn) [Example 504, N-(2-(3-oxabicyclo[3.1.0]hexan-6-yl)-7-isopropoxyimidazo[1,2-a]pyrimidin-6-yl)-2-isopropyloxazole-4-carboxamide] displayed an IC50 of 0.002 µM.

Compound `CC(C)Oc1nc(NC(=O)c2cccc(C(F)F)n2)cn2cc(C3CCOCC3)nc12` [Example 339, 6-(difluoromethyl)-N-(8-isopropoxy-2-(tetrahydro-2H-pyran-4-yl)imidazo[1,2-a]pyrazin-6-yl)picolinamide] gave an IC50 of 0.016 µM. This IC50 is about 8-fold higher than that of the compound before.

As to `CCOc1cc2nc(C3C4COCC43)cn2cc1NC(=O)c1coc(C(F)F)n1` (stereo not drawn) [Example 376, N-(2-(3-oxabicyclo[3.1.0]hexan-6-yl)-7-ethoxyimidazo[1,2-a]pyridin-6-yl)-2-(difluoromethyl)oxazole-4-carboxamide 2,2,2-trifluoroacetate], the IC50 came out at 0.009 µM.

`COc1ccccc1C(=O)Nc1cn2cc(C34COC(C)(C3)C4)nc2nc1OC1CC1` [Example 350, N-(7-cyclopropoxy-2-(1-methyl-2-oxabicyclo[2.1.1]hexan-4-yl)imidazo[1,2-a]pyrimidin-6-yl)-2-methoxybenzamide] showed an IC50 of 0.006 µM.

The compound `CCOc1cc2nc(C3C4COCC43)cn2cc1NC(=O)c1coc(C2CC2)n1` (stereo not drawn) [Example 375, N-(2-(3-oxabicyclo[3.1.0]hexan-6-yl)-7-ethoxyimidazo[1,2-a]pyridin-6-yl)-2-cyclopropyloxazole-4-carboxamide] displayed an IC50 of 0.004 µM.

`CC(C)Oc1cc2nc(C3CCOCC3)cn2cc1NC(=O)c1coc(C2CCOCC2)n1` [Example 387, N-(7-isopropoxy-2-(tetrahydro-2H-pyran-4-yl)imidazo[1,2-a]pyridin-6-yl)-2-(tetrahydro-2H-pyran-4-yl)oxazole-4-carboxamide 2,2,2-trifluoroacetate] had an IC50 of 0.001 µM. Compared with the last compound, the IC50 is about 4-fold lower.

`O=C(Nc1cn2cc(C3CCCOC3)nc2c(OC(F)F)n1)c1cccc(C(F)F)n1` (single isomer, unassigned) [Example 302, N-(8-(difluoromethoxy)-2-(tetrahydro-2H-pyran-3-yl)imidazo[1,2-a]pyrazin-6-yl)-6-(difluoromethyl)picolinamide] returned an IC50 of 0.008 µM. This IC50 lies about 8-fold higher than the previous one.

Turning to `COc1nc(NC(=O)c2cccc(C(F)F)n2)cn2cc(C3C4COCC43)nc12` (stereo not drawn) [Example 551, N-(2-(3-oxabicyclo[3.1.0]hexan-6-yl)-8-methoxyimidazo[1,2-a]pyrazin-6-yl)-6-(difluoromethyl)picolinamide 2,2,2-trifluoroactetate], the IC50 turned out to be 0.026 µM.

As for `Cn1ccc(C(=O)Nc2cn3cc(C45COC(C)(C4)C5)nc3c(F)c2OC2CCCC2)n1` [Example 437, N-(7-(cyclopentyloxy)-8-fluoro-2-(1-methyl-2-oxabicyclo[2.1.1]hexan-4-yl)imidazo[1,2-a]pyridin-6-yl)-1-methyl-1H-pyrazole-3-carboxamide 2,2,2-trifluoroacetate], inhibition was half-maximal at 0.004 µM (IC50). Against the preceding compound, the IC50 is about 6.5-fold lower.

As to `O=C(Nc1cn2cc(C3CCOCC3)nc2cc1OC1CCOC1)c1cccc(C(F)F)n1` (stereo not drawn) [Example 183, 6-(difluoromethyl)-N-(2-(tetrahydro-2H-pyran-4-yl)-7-((tetrahydrofuran-3-yl)oxy)imidazo[1,2-a]pyridin-6-yl)picolinamide], the IC50 is 0.001 µM. This IC50 is about 4-fold lower than that of the compound before.

In turn, `COc1nc(NC(=O)c2cccc(C(F)F)n2)cn2cc(C3CC4(CCOC4)C3)nc12` (stereo not drawn) [Example 557, 6-(difluoromethyl)-N-(8-methoxy-2-(6-oxaspiro[3.4]octan-2-yl)imidazo[1,2-a]pyrazin-6-yl)picolinamide 2,2,2-trifluoroacetate] showed an IC50 of 0.006 µM.

The compound `COc1ccccc1C(=O)Nc1cn2cc(C34CC(C#N)(C3)C4)nc2cc1OC(C)C` [Example 311, N-(2-(3-cyanobicyclo[1.1.1]pentan-1-yl)-7-isopropoxyimidazo[1,2-a]pyridin-6-yl)-2-methoxybenzamide] returned an IC50 of 0.006 µM.

As for `O=C(Nc1cn2cc(C3CCOCC3)nc2cc1OC(F)F)c1cccc(C(F)F)n1` [Example 394, N-(7-(difluoromethoxy)-2-(tetrahydro-2H-pyran-4-yl)imidazo[1,2-a]pyridin-6-yl)-6-(difluoromethyl)picolinamide], it took 0.001 µM to reach half-maximal inhibition (IC50). Against the preceding compound, the IC50 is about 6-fold lower.

`COc1nc(NC(=O)c2cccc(C(F)F)n2)cn2cc([C@@]34CC[C@@](C)(C3)OC4)nc12` (single isomer, unassigned) [Example 276, 6-(Difluoromethyl)-N-(8-methoxy-2-((1S*,4R*)-1-methyl-2-oxabicyclo[2.2.1]heptan-4-yl)imidazo[1,2-a]pyrazin-6-yl)picolinamide] yielded an IC50 of 0.005 µM.

The compound `O=C(Nc1cn2cc(C3CC4(CCOC4)C3)nc2cn1)c1cccc(C(F)F)n1` (stereo not drawn) [Example 273, N-(2-(6-oxaspiro[3.4]octan-2-yl)imidazo[1,2-a]pyrazin-6-yl)-6-(difluoromethyl)picolinamide] gave an IC50 of 0.02 µM. This IC50 is about 4-fold higher than that of the compound before.

`Cn1ccc(C(=O)Nc2cn3cc(C45COC(C)(C4)C5)nc3cc2C(F)F)n1` [Example 390, N-(7-(difluoromethyl)-2-(1-methyl-2-oxabicyclo[2.1.1]hexan-4-yl)imidazo[1,2-a]pyridin-6-yl)-1-methyl-1H-pyrazole-3-carboxamide 2,2,2-trifluoroacetate] had an IC50 of 0.072 µM.

`COc1nc2nc(C3CCCOC3)cn2cc1NC(=O)c1cccc(C(F)F)n1` (stereo not drawn) [Example 569, 6-(difluoromethyl)-N-(7-methoxy-2-(tetrahydro-2H-pyran-3-yl)imidazo[1,2-a]pyrimidin-6-yl)picolinamide] registered an IC50 of 0.004 µM.

As for `CC12CC(c3cn4cc(NC(=O)c5cccc(C(F)F)n5)ncc4n3)(CO1)C2` [Example 274, 6-(difluoromethyl)-N-(2-(1-methyl-2-oxabicyclo[2.1.1]hexan-4-yl)imidazo[1,2-a]pyrazin-6-yl)picolinamide], half-maximal inhibition (IC50) required 0.068 µM.

These data come from patent US20220089592A1, “IMIDAZO[1,2-A]PYRIDINYL DERIVATIVES AS IRAK4 INHIBITORS” (priority 2019, published 2022).
